These results are taken from patent publication US4065495A (Zaidan Hojin Biseibutsu Kagaku Kenkyu Kai, priority 1975, dated 1977).

In brackets after ≈: the same amount, converted by molar mass. Bounds are passed on as bounds.

For one data set, the system named is Salmonella typhi T-63. Description: Minimum inhibitory concentration, Salmonella typhi T-63. Format: cell-based. The following applies: Salmonella enterica, 17 h, read-out: Minimum Inhibitory Concentration. Here is the method:
(§1) *Minimum inhibitory concentrations were determined on a 0.5% peptone agar
(§2) by incubation at 37° C. for 17 hours.

For a further data set, the system named is Proteus rettgeri GN466. Kind of data set: Minimum inhibitory concentration, Proteus rettgeri GN466. Format: cell-based. As to conditions: Providencia rettgeri, 0.5% peptone agar, 37° C., 17 hours. The method, then: as §1, §2
Data set [1] is described as follows: Stability in aqueous or 0.02N HCl aqueous solution. Type of data set: physicochemical. The following applies: in words.
Another data set deals with Proteus rettgeri GN311. Kind of data set: Minimum inhibitory concentration, Proteus rettgeri GN311. Format: cell-based. The following applies: Providencia rettgeri, 0.5% peptone agar, 37° C., 17 hours. The method, then:
as §1, §2

Data set [2] has as its system Klebsiella pneumoniae PCI602. Description: Minimum inhibitory concentration, Klebsiella pneumoniae PCI602. Format: cell-based. The following applies: 0.5% peptone agar, 37° C., 17 hours. Here is the method: as §1, §2
Data set [3] has as its system Gram-positive and Gram-negative bacteria. Description: Antibacterial activity against Gram-positive and Gram-negative bacteria. Type of data set: cell-based. As to conditions: in words. The method, then: as §1, §2
The test system of another data set is Escherichia coli NIHJ. Kind of data set: Minimum inhibitory concentration, Escherichia coli NIHJ. Type of data set: cell-based. As to conditions: 0.5% peptone agar, 37° C., 17 hours. Here is the method:
as §1, §2

Another data set relates to Pseudomonas fluorescens. Description: Minimum inhibitory concentration, Pseudomonas fluorescens. Format: cell-based. As to conditions: 0.5% peptone agar, 37° C., 17 hours. The method, then: as §1, §2
For data set [4], the system named is Staphylococcus aureus FDA209P. Description: Minimum inhibitory concentration, Staphylococcus aureus FDA209P. Format: cell-based. As to conditions: 0.5% peptone agar, 37° C., 17 hours. The method, then:
as §1, §2

A further data set deals with Micrococcus flavus FDA16. Kind of data set: Minimum inhibitory concentration, Micrococcus flavus FDA16. Type of data set: cell-based. As to conditions: 0.5% peptone agar, 37° C., 17 hours. Here is the method:
as §1, §2

The subject of data set [5] is Pseudomonas aeruginosa A3. Kind of data set: Minimum inhibitory concentration, Pseudomonas aeruginosa A3. The following applies: 0.5% peptone agar, 37° C., 17 hours. Format: cell-based. The method, then:
as §1, §2

The test system of data set [6] is Mycobacterium smegmatis ATC607. Description: Minimum inhibitory concentration, Mycobacterium smegmatis ATC607. Type of data set: cell-based. The following applies: Mycolicibacterium smegmatis, 0.5% peptone agar, 37° C., 17 hours. Here is the method: as §1, §2
Data set [7] concerns Staphylococcus aureus Smith. Kind of data set: Minimum inhibitory concentration, Staphylococcus aureus Smith. Type of data set: cell-based. As to conditions: 0.5% peptone agar, 37° C., 17 hours. Here is the method:
as §1, §2

Another data set has as its system Escherichia coliK-12. Description: Minimum inhibitory concentration, Escherichia coli K-12. The following applies: 0.5% peptone agar, 37° C., 17 hours. Format: cell-based. The method, then: as §1, §2
The test system of a further data set is Serratia marcescens. Description: Minimum inhibitory concentration, Serratia marcescens. Type of data set: cell-based. As to conditions: 0.5% peptone agar, 37° C., 17 hours. The method, then:
as §1, §2

For another data set, the system named is Proteus vulgaris OX-19. Kind of data set: Minimum inhibitory concentration, Proteus vulgaris OX-19. Type of data set: cell-based. As to conditions: OX19, 0.5% peptone agar, 37° C., 17 hours. The method, then: as §1, §2
The subject of a further data set is Sarcina lutea PCI1001. Kind of data set: Minimum inhibitory concentration, Sarcina lutea PCI1001. Type of data set: cell-based. As to conditions: Micrococcus luteus, 0.5% peptone agar, 37° C., 17 hours. Here is the method: as §1, §2
Data set [8] deals with Pseudomonas aeruginosa No. 12. Description: Minimum inhibitory concentration, Pseudomonas aeruginosa No. 12. Format: cell-based. The following applies: 0.5% peptone agar, 37° C., 17 hours. The method, then: as §1, §2
Data set [9] relates to Escherichia coli K-12 ML1629. Description: Minimum inhibitory concentration, Escherichia coli K-12 ML1629. Type of data set: cell-based. The following applies: K12ML1629, 0.5% peptone agar, 37° C., 17 hours. The method, then: as §1, §2
The test system of data set [10] is Bacillus subtilis NRRL B-558. Kind of data set: Minimum inhibitory concentration, Bacillus subtilis NRRL B-558. Format: cell-based. The following applies: NRRLB558, 0.5% peptone agar, 37° C., 17 hours. Here is the method: as §1, §2

Take `CN(CC(=O)O)NC(=O)C[C@H](N)CCCN` [Deoxynegamycin]: the MIC was 0.78 µg/mL (≈ 3.36 µM) in the data set with Salmonella typhi T-63; 3.13 µg/mL (≈ 13.5 µM) in the data set with Proteus rettgeri GN466; 6.25 µg/mL (≈ 26.9 µM) in the data set on Proteus rettgeri GN311; 6.25 µg/mL (≈ 26.9 µM) in data set [2]; 6.25 µg/mL (≈ 26.9 µM) in the data set with Escherichia coli NIHJ; 3.13 µg/mL (≈ 13.5 µM) with Pseudomonas fluorescens. Further, the MIC was 25 µg/mL (≈ 108 µM) in data set [4]; 50 µg/mL (≈ 215 µM) in the data set on Micrococcus flavus FDA16; 25 µg/mL (≈ 108 µM) in [5]; 50 µg/mL (≈ 215 µM) in data set [6]; 6.25 µg/mL (≈ 26.9 µM) in [7]; 3.13 µg/mL (≈ 13.5 µM) in the data set on Escherichia coliK-12. The MIC was 25 µg/mL (≈ 108 µM) against Serratia marcescens; 3.13 µg/mL (≈ 13.5 µM) with Proteus vulgaris OX-19; more than 100 µg/mL against Sarcina lutea PCI1001; 50 µg/mL (≈ 215 µM) in data set [8]; 3.13 µg/mL (≈ 13.5 µM) in [9]; 100 µg/mL (≈ 431 µM) in [10]. Also, in [1], the “stability in aqueous solution (general statement)” value is listed as “quite stable in aqueous solution”. In data set [3], the “inhibition of growth of Gram-positive and Gram-negative bacteria” value is “active against Gram-positive and Gram-negative bacteria”.

Take `CO[C@@H](CN)C[C@@H](N)CC(=O)NN(C)CC(=O)O` [O-Methylnegamycin]: the MIC stood at 1.56 µg/mL (≈ 5.95 µM) in the data set on Salmonella typhi T-63; 3.13 µg/mL (≈ 11.9 µM) in the data set on Proteus rettgeri GN466; 6.25 µg/mL (≈ 23.8 µM) in the data set on Proteus rettgeri GN311; 6.25 µg/mL (≈ 23.8 µM) in [2]; 6.25 µg/mL (≈ 23.8 µM) against Escherichia coli NIHJ; 1.56 µg/mL (≈ 5.95 µM) in the data set on Pseudomonas fluorescens. For the same compound, the MIC is 12.5 µg/mL (≈ 47.7 µM) in data set [4]; 50 µg/mL (≈ 191 µM) with Micrococcus flavus FDA16; 12.5 µg/mL (≈ 47.7 µM) in [5]; 25 µg/mL (≈ 95.3 µM) in [6]; 6.25 µg/mL (≈ 23.8 µM) in data set [7]; 3.13 µg/mL (≈ 11.9 µM) in the data set with Escherichia coliK-12. Besides, the MIC in the data set on Serratia marcescens was determined as 25 µg/mL (≈ 95.3 µM); in the data set on Proteus vulgaris OX-19, 1.56 µg/mL (≈ 5.95 µM); against Sarcina lutea PCI1001 it was 25 µg/mL (≈ 95.3 µM); in [8], 25 µg/mL (≈ 95.3 µM); in data set [9], 1.56 µg/mL (≈ 5.95 µM); in data set [10], 50 µg/mL (≈ 191 µM). In addition, the “stability in aqueous solution (general statement)” value in data set [1] is “quite stable in aqueous solution”. For the same compound, in [3], the “inhibition of growth of Gram-positive and Gram-negative bacteria” value was “active against Gram-positive and Gram-negative bacteria”.
